From paper PMC9400670, “Establishing the selective phospholipid membrane coordination, permeation and lysis properties for a series of ‘druggable’ supramolecular self-associating antimicrobial amphiphiles” (Chemical Science, 2022)
Like-named read-outs stand apart in the source and are kept apart here.

Experiments:
[1] = Mouse i.v. blood pharmacokinetic study; format: in vivo, female CD-1 mice; conditions: for enterohepatic recirculation: blood concentration-time profile, in words; for clearance: female, CD-1, mouse, 1 mg/kg, read-out: Cl blood; for clearance / Vd: SSA 3 derived based on AUC0–7h; for Cmax: 2% DMSO/98% H2O
Protocol: Within these studies SSAs 3 and 5 were dosed at 1 mg kg^−1, to female CD-1 mice (n = 9 per SSA) via an intravenous tail vein bolus dose formulation as solutions in 2% DMSO/98% water. Blood taken from the mouse tail vein was extracted by protein precipitation and SSA concentration calculated. The results of these studies are shown in Fig. 12 and Table 4. page 8: For the purpose of fu and SSA-3 PK determination, samples were analysed using a Waters I-Class ultra-high-performance liquid chromatography (UHPLC) system coupled to a Waters Xevo TQ-XS mass spectrometer. Separation of analytes was achieved using an Accucore Vanquish C18+ column (1.5 µm, 50 x 2.1 mm) at a temperature of 40°C and a binary mobile phase gradient at a flow rate of 0.4 mL/min. Initial LC conditions comprised 66% solvent A (0.1% formic acid + 5 mM ammonium acetate in water), 33% solvent B (0.1% formic acid + 5 mM ammonium acetate in methanol); this was ramped to 63% B at 1.8 min and 95% B at 1.9 min, held for 0.5 min and then immediately returned to initial conditions and held for the remaining 0.5 min of the method. Sample analysis was by electrospray ionisation combined with multiple reaction monitoring in negative ion mode. The capillary voltage was 0.8 kV, desolvation gas was 600°C. For the purpose of apparent permeability determination, samples were analysed using a Waters I- Class ultra-high-performance liquid chromatography (UHPLC) system coupled to a Waters Vion mass spectrometer (Waters, Elstree, UK). Separation of analytes was achieved used an Accucore Vanquish C18+ column (1.5 µm, 50 x 2.1 mm) at a temperature of 40°C and a binary mobile phase gradient at a flow rate of 0.4 mL/min. Initial LC conditions for SSA 1-4 comprised 66% solvent A (0.1% formic acid + 5 mM ammonium acetate in water), 33% solvent B (0.1% formic acid + 5 mM ammonium acetate in methanol); this was ramped to 63% B at 1.8 min and 95% B at 1.9 min, held for 0.5 min and then immediately returned to initial conditions and held for the remaining 0.5 min of the method. Initial LC conditions for SSA 5-10 comprised 54% solvent A (0.1% formic acid + 5 mM ammonium acetate in water), 46% solvent B (0.1% formic acid + 5 mM ammonium acetate in methanol); this was ramped to 67% B at 1.8 min and 95% B at 1.9 min, held for 0.5 min and then immediately returned to initial conditions and held for the remaining 0.5 min of the method. Sample analysis was by electrospray ionisation in negative ion mode. The capillary voltage was 2.5 kV, desolvation gas was 600°C. For the purpose of PK determination of SSA 5, samples were analysed using a Waters I-Class ultra- high-performance liquid chromatography (UHPLC) system coupled to a Waters Xevo TQ-XS mass spectrometer. Separation of analytes was achieved using an Accucore Vanquish C18+ column (1.5 µm, 50 x 2.1 mm) at a temperature of 40°C and a binary mobile phase gradient at a flow rate of 0.4 mL/min. Initial LC conditions comprised 54% solvent A (0.1% formic acid + 5 mM ammonium acetate in water), 46% solvent B (0.1% formic acid + 5 mM ammonium acetate in methanol); this was ramped to 67% B at 1.8 min and 95% B at 1.9 min, held for 0.5 min and then immediately returned to initial conditions and held for the remaining 0.5 min of the method. Sample analysis was by electrospray ionisation combined with multiple reaction monitoring in negative ion mode. The capillary voltage was 0.8 kV, desolvation gas was 600°C. Mean blood concentration-time profile: Within these studies SSAs 3 and 5 were dosed at 1 mg/kg, to female CD-1 mice (n=9 per SSA) via an intravenous tail vein bolus dose formulation as solutions in 2 % DMSO/98 % water. Blood taken from the mouse tail vein was extracted by protein precipitation. SSA concentrations were calculated through UPLC-MS/MS techniques, with tolbutamide as the internal standard. The assay met the acceptance criteria with >7 calibration standards within ± 20% of nominal concentration. The lower limit of quantitation was 2 ng/mL for both compounds. […]

[2] = Satellite terminal tissue sampling after i.v. dosing; format: in vivo; conditions: n = 3 mice; for concentration at 0.5 h / concentration at 4 h: CD-1, mouse, iv, 1 mg kg^−1; for concentration at 0.5 h: 0.5 h post i.v. dosing
Protocol: Finally, to gain an understanding of the propensity for SSAs 3 and 5 to diffuse from the mouse circulatory system into the mouse tissues, satellite terminal tissue sampling was also performed.

[3] = set-up: method as in PMID 29568426; conditions: surface tension; 19 : 1 H2O : EtOH solution at 298 K; unit printed only in Figs S37-S40; cited from earlier work
[4] = blood, iv, i.v. 1 mg kg^−1, female CD-1 mice
[5] = i.v. 1 mg kg^−1, female CD-1 mice
[6] = mouse, blood, iv, i.v. 1 mg kg^−1, female CD-1 mice
[7] = mouse, iv, blood, i.v. 1 mg kg^−1, female CD-1 mice
[8] = liver, read-out: Concentration of SSA in liver
[9] = liver, 4.0 h post i.v. dosing, read-out: Concentration of SSA in liver
[10] = lung, read-out: Concentration of SSA in lung
[11] = muscle, read-out: Concentration of SSA in muscle

| Blood concentration of SSA ([1]; 0.5 h post i.v. dosing) | Blood concentration of SSA ([1]; 4.0 h post i.v. dosing) | clearance [1, 4] | Cl blood as % liver blood flow (LBF) [1, 5] | Vd [1, 6] | Cmax [1, 7] | AUC(0-t) [1, 7] | Tmax [1, 7] | Concentration of SSA in muscle ([2]; 4.0 h post i.v. dosing) | concentration at 0.5 h [2, 8] | concentration at 4 h [2, 9] | concentration at 0.5 h [2, 10] | concentration at 4 h ([2]; lung, 4.0 h post i.v. dosing, read-out: Concentration of SSA in lung) | concentration at 0.5 h [2, 11] | half-life ([1]; mouse, blood, iv, elimination half-life, i.v. 1 mg kg^−1, female CD-1 mice) | AUC(0-inf) [1, 7] | Concentration of SSA in lung ([2]; 4.0 h post i.v. dosing) | SMILES | enterohepatic recirculation ([1]; i.v. 1 mg kg^−1) | CMC [3] |
| --- | --- | --- | --- | --- | --- | --- | --- | --- | --- | --- | --- | --- | --- | --- | --- | --- | --- | --- | --- |
| 344 nM | 99 nM | 25 mL/min/kg | 28 % LBF | 0.8 L/kg | 8090 nM | 2.28 µM·h | 4.98 min | BLQ | 1230 nM | 206 nM | 86 nM | 18 nM | 86 nM | – | – | – | O=C(NCS(=O)(=O)O)Nc1ccc(C(F)(F)F)cc1 [SSA 3] | undergoing enterohepatic recirculation | – |
| 643 nM | 11 nM | ~31 mL/min/kg | 34 % LBF | 0.9 L/kg | 4050 nM | 1.45 µM·h | 4.98 min | BLQ | 2200 nM | 429 nM | 153 nM | – | 172 nM | 42 min | 1.46 µM·h | BLQ | O=C(NCS(=O)(=O)O)Nc1ccccc1-c1nc2ccccc2s1 [SSA 5] | did not show any evidence of enterohepatic recirculation | 9.5 (ref. [38]) mM |
| – | – | – | – | – | – | – | – | – | – | – | – | – | – | – | – | – | Cc1ccc2nc(-c3ccc(NC(=O)NCS(=O)(=O)O)cc3)sc2c1 [SSA 6] | – | 0.5 (ref. [38]) mM |
